Results published in ChEMBL document CHEMBL4411307, “N,N'-diaryl-bishydrazones in a biphenyl platform: Broad spectrum antifungal agents” (Eur J Med Chem, 2019).
In brackets after ≈: the same amount, converted by molar mass. Activity calls are given as the source filed them. The rule behind the calls is not given here.

Experiments:
[1] = Selectivity index, ratio of CC50 for human A549 cells to MIC for Aspergillus nidulans ATCC 38163; type: toxicity; conditions: read-out: Selectivity Index
[2] = Selectivity index, ratio of CC50 for human A549 cells to MIC for Aspergillus terreus ATCC MYA-3633; type: toxicity; conditions: read-out: Selectivity Index
[3] = Hemolytic activity in mouse RBC at 7.8 ug/ml after 1 hr relative to control; type: ADME, cell-based, Erythrocyte; conditions: red blood cells (erythrocytes), read-out: Activity
[4] = Selectivity index, ratio of CC50 for human A549 cells to MIC for fluconazole/ITC-resistant Candida albicans ATCC 10231; type: toxicity; conditions: read-out: Selectivity Index
[5] = tested on: Aspergillus terreus; experiment: Antifungal activity against Aspergillus terreus ATCC MYA-3633 measured after 48 hrs by CLSI M38-A2 protocol based method; type: functional; conditions: ATCC MYA-3633, 48 h
[6] = tested on: Candida albicans; experiment: Antifungal activity against fluconazole/ITC-susceptible Candida albicans ATCC MYA-2310 measured after 48 hrs by CLSI M27-A3 protocol based method; type: functional; conditions: ATCC MYA-2310, 48 h
[7] = Selectivity index, ratio of compound concentration showing <20 to <25% hemolysis in mouse RBC to MIC for fluconazole/ITC-resistant Candida albicans ATCC 90819; type: toxicity; conditions: red blood cells (erythrocytes), read-out: Selectivity Index
[8] = Selectivity index, ratio of CC50 for human A549 cells to MIC for fluconazole/ITC-resistant Candida albicans ATCC 64124; type: toxicity; conditions: read-out: Selectivity Index
[9] = tested on: Pichia kudriavzevii; experiment: Antifungal activity against Candida krusei ATCC 6258 measured after 48 hrs by CLSI M27-A3 protocol based method; type: functional; conditions: ATCC 6258, 48 h
[10] = tested on: Listeria monocytogenes; experiment: Antibacterial activity against Listeria monocytogenes; type: functional, organism-based
[11] = Hemolytic activity in mouse RBC at 1.95 ug/ml after 1 hr relative to control; type: ADME, cell-based, Erythrocyte; conditions: red blood cells (erythrocytes), read-out: Activity
[12] = Selectivity index, ratio of compound concentration showing <20 to <25% hemolysis in mouse RBC to MIC for fluconazole/ITC-susceptible Candida albicans ATCC MYA-2876; type: toxicity; conditions: red blood cells (erythrocytes), read-out: Selectivity Index
[13] = Selectivity index, ratio of CC50 for human A549 cells to MIC for Candida glabrata ATCC 2001; type: toxicity; conditions: read-out: Selectivity Index
[14] = Selectivity index, ratio of compound concentration showing <20 to <25% hemolysis in mouse RBC to MIC for fluconazole/ITC-resistant Candida albicans ATCC MYA-1003; type: toxicity; conditions: red blood cells (erythrocytes), read-out: Selectivity Index
[15] = tested on: Candida albicans; experiment: Antifungal activity against fluconazole/ITC-resistant Candida albicans ATCC 64124 measured after 48 hrs by CLSI M27-A3 protocol based method; type: functional; conditions: ATCC 64124, 48 h
[16] = Selectivity index, ratio of compound concentration showing <20 to <25% hemolysis in mouse RBC to MIC for Aspergillus flavus ATCC MYA-3631; type: toxicity; conditions: red blood cells (erythrocytes), read-out: Selectivity Index
[17] = tested on: Staphylococcus aureus; experiment: Antibacterial activity against methicillin-resistant Staphylococcus aureus; type: functional, organism-based
[18] = Selectivity index, ratio of compound concentration showing <20 to <25% hemolysis in mouse RBC to MIC for fluconazole/ITC-resistant Candida albicans ATCC 64124; type: toxicity; conditions: red blood cells (erythrocytes), read-out: Selectivity Index
[19] = tested on: Candida albicans; experiment: Antifungal activity against fluconazole/ITC-resistant Candida albicans ATCC 10231 measured after 48 hrs by CLSI M27-A3 protocol based method; type: functional; conditions: ATCC 10231, 48 h
[20] = tested on: Nakaseomyces glabratus; experiment: Antifungal activity against Candida glabrata ATCC 2001 measured after 48 hrs by CLSI M27-A3 protocol based method; type: functional; conditions: CBS 138, 48 h
[21] = Selectivity index, ratio of CC50 for human A549 cells to MIC for fluconazole/ITC-resistant Candida albicans ATCC MYA-1237; type: toxicity; conditions: read-out: Selectivity Index
[22] = Selectivity index, ratio of CC50 for human A549 cells to MIC for Aspergillus flavus ATCC MYA-3631; type: toxicity; conditions: read-out: Selectivity Index
[23] = Hemolytic activity in mouse RBC at 31.3 ug/ml after 1 hr relative to control; type: ADME, cell-based, Erythrocyte; conditions: red blood cells (erythrocytes), read-out: Activity
[24] = Selectivity index, ratio of compound concentration showing <20 to <25% hemolysis in mouse RBC to MIC for Aspergillus terreus ATCC MYA-3633; type: toxicity; conditions: red blood cells (erythrocytes), read-out: Selectivity Index
[25] = tested on: Candida albicans; experiment: Antifungal activity against fluconazole/ITC-resistant Candida albicans ATCC MYA-1237 measured after 48 hrs by CLSI M27-A3 protocol based method; type: functional; conditions: ATCC MYA-1237, 48 h
[26] = Selectivity index, ratio of compound concentration showing <20 to <25% hemolysis in mouse RBC to MIC for Candida krusei ATCC 6258; type: toxicity; conditions: red blood cells (erythrocytes), read-out: Selectivity Index
[27] = Hemolytic activity in mouse RBC at 62.5 ug/ml after 1 hr relative to control; type: ADME, cell-based, Erythrocyte; conditions: red blood cells (erythrocytes), read-out: Activity
[28] = tested on: Candida parapsilosis; experiment: Antifungal activity against Candida parapsilosis ATCC 22019 measured after 48 hrs by CLSI M27-A3 protocol based method; type: functional; conditions: Lodderomyces parapsilosis, ATCC 22019, 48 h
[29] = Selectivity index, ratio of compound concentration showing <20 to <25% hemolysis in mouse RBC to MIC for fluconazole/ITC-resistant Candida albicans ATCC MYA-1237; type: toxicity; conditions: red blood cells (erythrocytes), read-out: Selectivity Index
[30] = Selectivity index, ratio of CC50 for human A549 cells to MIC for fluconazole/ITC-susceptible Candida albicans ATCC MYA-2876; type: toxicity; conditions: read-out: Selectivity Index
[31] = tested on: Candida albicans; experiment: Antifungal activity against fluconazole/ITC-resistant Candida albicans ATCC 90819 measured after 48 hrs by CLSI M27-A3 protocol based method; type: functional; conditions: ATCC 90819, 48 h
[32] = Hemolytic activity in mouse RBC at […] after 1 hr relative to control; type: ADME, cell-based, Erythrocyte; conditions: red blood cells (erythrocytes), read-out: Activity; also: tested at 0.48 µg/mL
[33] = tested on: Aspergillus nidulans; experiment: Antifungal activity against Aspergillus nidulans ATCC 38163 measured after 48 hrs by CLSI M38-A2 protocol based method; type: functional; conditions: ATCC 38163, 48 h
[34] = tested on: A549; experiment: Cytotoxicity against human A549 cells after 24 hrs by resazurin based assay; type: cell-based; conditions: a549, 24 h
[35] = Selectivity index, ratio of compound concentration showing <20 to <25% hemolysis in mouse RBC to MIC for Aspergillus nidulans ATCC 38163; type: toxicity; conditions: red blood cells (erythrocytes), read-out: Selectivity Index
[36] = Selectivity index, ratio of CC50 for human A549 cells to MIC for fluconazole/ITC-resistant Candida albicans ATCC 90819; type: toxicity; conditions: read-out: Selectivity Index
[37] = Selectivity index, ratio of compound concentration showing <20 to <25% hemolysis in mouse RBC to MIC for fluconazole/ITC-susceptible Candida albicans ATCC MYA-2310; type: toxicity; conditions: red blood cells (erythrocytes), read-out: Selectivity Index
[38] = Hemolytic activity in mouse RBC at 3.9 ug/ml after 1 hr relative to control; type: ADME, cell-based, Erythrocyte; conditions: red blood cells (erythrocytes), read-out: Activity
[39] = tested on: Enterococcus; experiment: Antibacterial activity against vancomycin-resistant Enterococcus; type: functional, organism-based
[40] = Selectivity index, ratio of CC50 for human A549 cells to MIC for fluconazole/ITC-resistant Candida albicans ATCC MYA-1003; type: toxicity; conditions: read-out: Selectivity Index
[41] = Selectivity index, ratio of CC50 for human A549 cells to MIC for fluconazole/ITC-susceptible Candida albicans ATCC MYA-2310; type: toxicity; conditions: read-out: Selectivity Index
[42] = tested on: Aspergillus flavus; experiment: Antifungal activity against Aspergillus flavus ATCC MYA-3631 measured after 48 hrs by CLSI M38-A2 protocol based method; type: functional; conditions: ATCC MYA-3631, 48 h
[43] = Selectivity index, ratio of CC50 for human A549 cells to MIC for Candida parapsilosis ATCC 22019; type: toxicity; conditions: read-out: Selectivity Index
[44] = Selectivity index, ratio of compound concentration showing <20 to <25% hemolysis in mouse RBC to MIC for Candida glabrata ATCC 2001; type: toxicity; conditions: red blood cells (erythrocytes), read-out: Selectivity Index
[45] = tested on: Candida albicans; experiment: Antifungal activity against fluconazole/ITC-resistant Candida albicans ATCC MYA-1003 measured after 48 hrs by CLSI M27-A3 protocol based method; type: functional; conditions: ATCC MYA-1003, 48 h
[46] = Selectivity index, ratio of compound concentration showing <20 to <25% hemolysis in mouse RBC to MIC for fluconazole/ITC-resistant Candida albicans ATCC 10231; type: toxicity; conditions: red blood cells (erythrocytes), read-out: Selectivity Index
[47] = Hemolytic activity in mouse RBC at […] ug/ml after 1 hr relative to control; type: ADME, cell-based, Erythrocyte; conditions: red blood cells (erythrocytes), read-out: Activity
[48] = Selectivity index, ratio of CC50 for human A549 cells to MIC for Candida krusei ATCC 6258; type: toxicity; conditions: read-out: Selectivity Index
[49] = tested on: Candida albicans; experiment: Antifungal activity against fluconazole/ITC-susceptible Candida albicans ATCC MYA-2876 measured after 48 hrs by CLSI M27-A3 protocol based method; type: functional; conditions: ATCC MYA-2876, 48 h
[50] = Selectivity index, ratio of compound concentration showing <20 to <25% hemolysis in mouse RBC to MIC for Candida parapsilosis ATCC 22019; type: toxicity; conditions: red blood cells (erythrocytes), read-out: Selectivity Index
[51] = tested on: BEAS-2B; experiment: Cytotoxicity against human BEAS2B cells after 24 hrs by resazurin based assay; type: cell-based

Work on `C(=N\Nc1ccccc1)/c1ccc(-c2ccc(/C=N/Nc3ccccc3)cc2)cc1` yielded a selectivity ratio [1] of 9.1, a selectivity ratio [2] of 1.1 and a hemolysis at 1 h, 7.8 ug/ml [3] of 2.9%. The selectivity ratio [4] was 2.3, the MIC [5] was 15.6 µg/mL (≈ 39.9 µM) and the MIC [6] was over 31.3 µg/mL. The selectivity ratio [7] was 1 to 32, the selectivity ratio [8] was 0.6 and the MIC [9] was over 31.3 µg/mL. For the same compound, the Activity [10] was “inactive”, the hemolysis at 1 h, 1.95 ug/ml [11] was 3.7% and the selectivity ratio [12] was 1 to 32. For the same compound, the selectivity ratio [13] was 0.6, the selectivity ratio [14] was 1 to 32 and the MIC [15] was over 31.3 µg/mL. The selectivity ratio [16] was 1 to 32, the Activity [17] was “inactive” and the selectivity ratio [18] was 1 to 32. The MIC [19] was 7.8 µg/mL (≈ 20 µM), the MIC [20] was over 31.3 µg/mL and the selectivity ratio [21] was 0.6. The selectivity ratio [22] was 4.5, the hemolysis at 1 h, 31.3 ug/ml [23] was 10.8% and the selectivity ratio [24] was 1 to 32. The MIC [25] was over 31.3 µg/mL, the selectivity ratio [26] was 1 to 32 and the hemolysis at 1 h, 62.5 ug/ml [27] was 17.2%. It also gave an MIC [28] of over 31.3 µg/mL, a selectivity ratio [29] of 1 to 32 and a selectivity ratio [30] of 0.6. For the same compound, the MIC [31] was 31.3 µg/mL (≈ 80.2 µM), the hemolysis at 1 h, […] [32] was 2% and the MIC [33] was 1.95 µg/mL (≈ 4.99 µM). For the same compound, the CC50 [34] was 17.7 µg/mL (≈ 45.3 µM), the selectivity ratio [35] was 1 to 32 and the selectivity ratio [36] was 0.6. For the same compound, the selectivity ratio [37] was 1 to 32, the hemolysis at 1 h, 3.9 ug/ml [38] was 3.4% and the Activity [39] was “inactive”. It also gave a selectivity ratio [40] of 0.6, a selectivity ratio [41] of 0.6 and an MIC [42] of 3.9 µg/mL (≈ 9.99 µM). For the same compound, the selectivity ratio [43] was 0.6, the selectivity ratio [44] was 1 to 32 and the MIC [45] was over 31.3 µg/mL. It also gave a selectivity ratio [46] of 1 to 32, a hemolysis at 1 h, 15.6 ug/ml ([47]; at 15.6 µg/mL) of 14.1% and a hemolysis at 1 h, 0.975 ug/ml [47] of 0.1%. For the same compound, the selectivity ratio [48] was 0.6, the MIC [49] was over 31.3 µg/mL and the selectivity ratio [50] was 1 to 32. For the same compound, the CC50 [51] was 11 µg/mL (≈ 28.2 µM).
